The source of these data is US20240279215A1 (Cytokinetics, Incorporated, priority 2022, published 2024).

The assay has as its target human NAMPT (Homo sapiens (Human), UniProt P43490). Briefly: NMN fluorescence biochemical assay (human recombinant NAMPT enzyme assay). Put shortly:
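NMN formed was detected by fluorescence (Ex/Em 355/460 nm) after acetophenone, KOH and formic acid derivatization. The cell-free reaction ran 60 min at ambient temperature with 6 nM human NAMPT, 150 μM nicotinamide, 20 μM PRPP, 2.5 mM ATP, pH 7.2 HEPES, and compound dose responses.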

human NAMPT, sequence (P43490 whole entry): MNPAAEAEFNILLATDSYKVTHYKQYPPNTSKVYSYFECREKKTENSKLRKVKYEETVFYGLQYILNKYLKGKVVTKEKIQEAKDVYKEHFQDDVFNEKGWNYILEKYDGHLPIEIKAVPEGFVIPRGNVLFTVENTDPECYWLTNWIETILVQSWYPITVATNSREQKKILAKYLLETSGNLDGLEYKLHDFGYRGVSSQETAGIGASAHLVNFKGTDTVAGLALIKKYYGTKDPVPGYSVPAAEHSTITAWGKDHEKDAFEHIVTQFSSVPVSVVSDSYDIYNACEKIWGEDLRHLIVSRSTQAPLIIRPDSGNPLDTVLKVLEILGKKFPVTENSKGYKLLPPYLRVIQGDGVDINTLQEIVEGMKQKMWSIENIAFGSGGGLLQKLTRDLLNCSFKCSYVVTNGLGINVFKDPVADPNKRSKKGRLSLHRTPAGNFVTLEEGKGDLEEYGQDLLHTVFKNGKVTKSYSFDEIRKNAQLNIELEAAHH

One may read the EC50 as the concentration giving half of the maximal effect. For `O=C1CN(C2COC2)[C@@H](c2ccc(NC(=O)OCc3ccc(Cl)cc3)cc2)CN1` [Compound 346, 4-chlorobenzyl (S)-(4-(1-(oxetan-3-yl)-5-oxopiperazin-2-yl)phenyl)carbamate], the “AC1.4 Human” value was 13.52 µM and the EC50 came out at 45.3 µM.
Regarding `O=C(Nc1ccc(CC2CCN(S(=O)(=O)C3CCC3)CC2)cc1)OCc1cnco1` [Compound 459, oxazol-5-ylmethyl (4-((1-(cyclobutylsulfonyl)piperidin-4-yl)methyl)phenyl)carbamate], the “AC1.4 Human” value came out at 0.18 µM and the EC50 was determined as 7.06 µM.
As for `COc1cc(C(=O)NCc2ccc(NC(=O)OCc3ccc(Cl)cc3)cc2)n(C)n1` [Compound 138, (4-chlorophenyl)methyl N-(4-{[(5-methoxy-2-methylpyrazol-3-yl)formamido]methyl}phenyl)carbamate], the “AC1.4 Human” value came out at 1.11 µM and the EC50 came out at 8.41 µM.
In the same order, the values of `O=C(Nc1ccc(CC2CCN(S(=O)(=O)N3CCC3)CC2)cc1)OCc1cnco1` [Compound 465, oxazol-5-ylmethyl (4-((1-(azetidin-1-ylsulfonyl)piperidin-4-yl)methyl)phenyl)carbamate] are 0.14 µM and 7.25 µM.
In the same order, the values of `O=C(Nc1ccc(CC2CCN(C(=O)N3CCC3)CC2)cc1)OCc1cnco1` [Compound 468, oxazol-5-ylmethyl (4-((1-(azetidine-1-carbonyl)piperidin-4-yl)methyl)phenyl)carbamate] are 0.13 µM and 14.5 µM.
Regarding “tert-butyl 4-(4-(((oxazol-5-ylmethoxy)carbonyl)amino)phenethyl)piperidine-1-carboxylate [Compound 121]”, the “AC1.4 Human” value is 0.97 µM and the EC50 was 14.5 µM.
In the same order, the values of `Cc1ncc(C(=O)NCc2ccc(NC(=O)OCc3ccc(Cl)cc3)cc2)o1` [Compound 157, (4-chlorophenyl)methyl N-(4-{[(2-methyl-1,3-oxazol-5-yl)formamido]methyl}phenyl)carbamate] are 1.32 µM and 9.11 µM.
On to `CN(C)C(=O)N1CCC2(CC(c3ccc(NC(=O)OCc4cnco4)cc3F)C2)C1` (single isomer, unassigned) [Compound 364], for which the “AC1.4 Human” value was 0.07 µM and the EC50 is 3.97 µM.
In the case of `O=C(Nc1ccc(Cc2ccns2)cc1)OCc1ccc(Cl)cc1` [Compound 350, 4-chlorobenzyl (4-(isothiazol-5-ylmethyl)phenyl)carbamate], the “AC1.4 Human” value amounted to 20.27 µM and the EC50 worked out at 44.4 µM.
As for `O=C(Nc1ccc(Cc2ccncc2)cc1)OCc1ccncc1` [Compound 169, pyridin-4-ylmethyl (4-(pyridin-4-ylmethyl)phenyl)carbamate], the “AC1.4 Human” value came to 1.41 µM and the EC50 was found to be 6.11 µM.
In the case of `CCc1ccc(C(=O)N[C@@H](C)c2ccc(NC(=O)OCc3ccc(Cl)cc3)cc2)cn1` [Compound 76, (4-chlorophenyl)methyl N-{4-[(1S)-1-[(6-ethylpyridin-3-yl)formamido]ethyl]phenyl}carbamate], the “AC1.4 Human” value worked out at 0.64 µM and the EC50 stood at 0.89 µM.
As for `O=C(Nc1ccc(Cc2ncccn2)cc1)OCc1ccc(Cl)cc1` [Compound 279, 4-chlorobenzyl (4-(pyrimidin-2-ylmethyl)phenyl)carbamate], the “AC1.4 Human” value turned out to be 3.43 µM and the EC50 worked out at 29 µM.
In the same order, the values of `O=C(Nc1ccc(Cc2nccs2)cc1)OCc1ccc(Cl)cc1` [Compound 336, 4-chlorobenzyl (4-(thiazol-2-ylmethyl)phenyl)carbamate] are 10.07 µM and 24.3 µM.
As for `COc1ccc(COC(=O)Nc2ccc([C@H](C)C(=O)N3CCC[C@H]3CO)cc2)cc1` [Compound 341], the “AC1.4 Human” value is 11.08 µM and the EC50 is 55.6 µM.
